Assay results taken from paper PMC7702301 (Biochemical Journal, 2020).

What was measured:
RIPK1 = conditions: phosphorylation mimicked by a glutamate residue; cited from earlier work
MerTK [1] = target: T1, MerTK (Homo sapiens, UniProt Q12866); assay: Surface plasmon resonance, MerTK; assay type: binding; conditions: read-out: residence times
T1 sequence (Q12866 528-999): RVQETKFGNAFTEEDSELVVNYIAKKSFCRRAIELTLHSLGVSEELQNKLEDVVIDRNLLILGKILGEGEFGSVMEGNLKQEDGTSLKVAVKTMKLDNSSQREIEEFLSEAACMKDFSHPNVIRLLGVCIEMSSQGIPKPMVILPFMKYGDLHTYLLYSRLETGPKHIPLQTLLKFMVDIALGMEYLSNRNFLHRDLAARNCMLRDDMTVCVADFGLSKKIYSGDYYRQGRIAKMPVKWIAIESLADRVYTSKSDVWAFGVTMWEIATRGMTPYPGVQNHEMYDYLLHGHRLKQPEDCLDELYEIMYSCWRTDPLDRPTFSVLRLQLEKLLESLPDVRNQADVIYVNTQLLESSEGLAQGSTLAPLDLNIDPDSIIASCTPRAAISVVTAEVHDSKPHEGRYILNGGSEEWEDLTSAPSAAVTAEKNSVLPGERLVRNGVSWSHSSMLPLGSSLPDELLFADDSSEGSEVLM

MerTK [2] = conditions: cited from earlier work
dephosphorylated MerTK = target: T2, dephosphorylated MerTK (Homo sapiens, UniProt Q12866); assay: Surface plasmon resonance, dephosphorylated MerTK; assay type: binding
T2 sequence (Q12866 528-999): T1 sequence (Q12866 528-999)

Question: Which “drop of affinity for RIPK1 upon phosphorylation of Ser161” value (RIPK1) does the source give for CN1C(=O)C(Cc2c[nH]c3ccccc23)NC1=S (stereo not shown) [Nec-1] here?
Answer: ~10 fold

Question: For CCc1nc(C(N)=O)c(Nc2ccc(N3CCC(N4CCN(C)CC4)CC3)c(OC)c2)nc1NC1CCOCC1 [gilteritinib], which residence time (MerTK [1]) is on record?
Answer: < 1 min

Question: What about the “off-target activity against MerTK” value (MerTK [2]) of the same compound?
Answer: double-digit nanomolar

Question: With Cc1ccc(C(=O)Nc2ccc(Oc3cc4cnn(C)c4cc3-c3cn[nH]c3)c(F)c2)c(=O)n1-c1ccc(F)cc1 [merestinib] as the compound, how does the residence time (dephosphorylated MerTK) read?
Answer: > 120 min
